Data from the NIST ThermoML archive (doi:10.1016/j.jct.2013.12.029).
Numbers after ± are expanded uncertainties.

Conditions: 293 K; 101.33 kPa; Liquid; Vibrating tube method

Row | SMILES | mass density
1 | CCCCCC[N+]1(C)CCCCC1.O=S(=O)([N-]S(=O)(=O)C(F)(F)F)C(F)(F)F | 1329.5 ± 1.1 kg/m3

Same assay, conditions: 298.15 K; 101.33 kPa; Liquid; Vibrating tube method

Row | SMILES | mass density
2 | CCCCCC[N+]1(C)CCCCC1.O=S(=O)([N-]S(=O)(=O)C(F)(F)F)C(F)(F)F | 1325.4 ± 1.1 kg/m3
3 | CCCC[N+]1(C)CCCCC1.O=S(=O)([N-]S(=O)(=O)C(F)(F)F)C(F)(F)F | 1379.2 ± 1.1 kg/m3
4 | CCC[N+]1(C)CCCCC1.O=S(=O)([N-]S(=O)(=O)C(F)(F)F)C(F)(F)F | 1409.8 ± 1.1 kg/m3
5 | CC(C)=O [acetone] | 785.32 ± 1 kg/m3
6 | c1ccc2sccc2c1 [benzo[b]thiophene] | 1427 ± 1 kg/m3
7 | CCCCCCC [heptane] | 679.54 ± 1 kg/m3
8 | CCCO [propan-1-ol] | 799.52 ± 1 kg/m3
9 | c1ccsc1 [thiophene] | 1058.92 ± 1 kg/m3
